Molecules are shown by their SMILES. Some results are limits rather than exact numbers.

This note sets out measurements from patent US9776995B2, “Bicyclic sulfonamide compounds as sodium channel inhibitors” (AMGEN INC., priority 2013, dated 2017).

Sequence of Nav 1.5 (Q14524 whole entry): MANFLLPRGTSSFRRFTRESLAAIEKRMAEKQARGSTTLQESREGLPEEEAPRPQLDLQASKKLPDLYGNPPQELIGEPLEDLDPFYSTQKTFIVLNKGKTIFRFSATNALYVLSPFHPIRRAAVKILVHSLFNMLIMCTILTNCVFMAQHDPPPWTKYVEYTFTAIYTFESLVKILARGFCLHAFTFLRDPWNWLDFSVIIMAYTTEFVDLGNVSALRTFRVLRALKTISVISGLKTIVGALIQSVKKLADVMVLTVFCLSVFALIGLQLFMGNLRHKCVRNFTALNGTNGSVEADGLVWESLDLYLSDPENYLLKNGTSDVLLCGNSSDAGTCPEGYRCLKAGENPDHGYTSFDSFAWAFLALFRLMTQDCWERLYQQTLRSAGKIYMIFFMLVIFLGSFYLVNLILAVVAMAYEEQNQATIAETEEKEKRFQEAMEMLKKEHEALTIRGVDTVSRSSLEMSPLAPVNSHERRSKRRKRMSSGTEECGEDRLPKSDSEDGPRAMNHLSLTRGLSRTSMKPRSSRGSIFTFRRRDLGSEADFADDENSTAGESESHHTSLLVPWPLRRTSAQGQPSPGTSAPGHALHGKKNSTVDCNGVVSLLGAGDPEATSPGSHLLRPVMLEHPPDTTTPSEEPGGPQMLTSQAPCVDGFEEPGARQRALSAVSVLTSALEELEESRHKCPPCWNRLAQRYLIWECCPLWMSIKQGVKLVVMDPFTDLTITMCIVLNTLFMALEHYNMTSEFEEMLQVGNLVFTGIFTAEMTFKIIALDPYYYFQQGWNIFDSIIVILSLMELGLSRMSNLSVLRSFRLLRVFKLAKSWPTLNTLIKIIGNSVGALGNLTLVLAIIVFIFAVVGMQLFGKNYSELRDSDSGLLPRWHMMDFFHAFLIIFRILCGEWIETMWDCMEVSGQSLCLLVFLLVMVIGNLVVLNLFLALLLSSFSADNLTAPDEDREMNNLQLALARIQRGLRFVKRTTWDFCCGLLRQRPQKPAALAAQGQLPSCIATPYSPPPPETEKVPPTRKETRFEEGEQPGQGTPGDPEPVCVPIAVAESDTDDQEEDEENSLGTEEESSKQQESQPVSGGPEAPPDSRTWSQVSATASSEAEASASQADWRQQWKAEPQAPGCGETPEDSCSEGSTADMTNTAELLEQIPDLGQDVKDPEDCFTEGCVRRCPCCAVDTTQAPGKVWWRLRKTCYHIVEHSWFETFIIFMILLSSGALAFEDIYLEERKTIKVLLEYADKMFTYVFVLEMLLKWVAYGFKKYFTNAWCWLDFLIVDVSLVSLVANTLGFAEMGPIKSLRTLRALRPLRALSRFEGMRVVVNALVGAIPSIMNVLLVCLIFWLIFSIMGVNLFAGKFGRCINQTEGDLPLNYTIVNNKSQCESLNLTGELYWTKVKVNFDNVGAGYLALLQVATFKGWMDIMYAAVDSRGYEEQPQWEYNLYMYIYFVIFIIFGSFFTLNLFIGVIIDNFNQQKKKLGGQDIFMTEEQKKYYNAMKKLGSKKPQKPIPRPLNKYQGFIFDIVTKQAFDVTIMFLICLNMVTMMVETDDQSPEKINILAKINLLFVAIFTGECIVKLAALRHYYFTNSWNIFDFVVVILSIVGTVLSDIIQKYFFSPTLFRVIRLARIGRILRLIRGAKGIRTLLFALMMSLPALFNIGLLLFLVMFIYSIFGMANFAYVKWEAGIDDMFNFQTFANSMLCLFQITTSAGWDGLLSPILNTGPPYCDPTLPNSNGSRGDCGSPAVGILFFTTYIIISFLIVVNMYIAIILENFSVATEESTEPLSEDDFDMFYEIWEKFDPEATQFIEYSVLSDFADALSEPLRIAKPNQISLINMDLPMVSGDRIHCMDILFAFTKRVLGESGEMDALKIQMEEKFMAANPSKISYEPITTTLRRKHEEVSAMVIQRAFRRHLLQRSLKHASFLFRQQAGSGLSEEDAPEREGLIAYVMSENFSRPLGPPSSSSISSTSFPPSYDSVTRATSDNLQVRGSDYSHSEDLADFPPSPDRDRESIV

One series concerns the target Nav 1.5 (Homo sapiens (Human), UniProt Q14524). The series is described as follows: in-vitro Nav 1.5 PX data. Particulars: read-out: Nav 1.5 PX IC50; PatchXpress (PX), in vitro.
As to `COc1cc(-c2ccc(C)c(F)c2)c(C#N)cc1-c1nccc2cc(S(=O)(=O)Nc3ccon3)ccc12` [Example 81, 1-(2-cyano-3′-fluoro-5-methoxy-4′-methyl-4-biphenylyl)-N-3-isoxazolyl-6-isoquinolinesulfonamide], the IC50 was over 10000 nM. As for `COc1cc(-c2cc(F)cnc2OC)c(C#N)cc1-c1nccc2cc(S(=O)(=O)Nc3ccon3)ccc12` [Example 83, 1-(5-cyano-4-(5-fluoro-2-methoxy-3-pyridinyl)-2-methoxyphenyl)-N-3-isoxazolyl-6-isoquinolinesulfonamide], the concentration for half-maximal inhibition (IC50) was over 10000 nM.

Still in this series, the particulars now being: read-out: Nav 1.5 PX IC50; in-vitro Nav 1.5 PX data.
With `COc1cc(-c2cc(C)cc(F)c2)c(C#N)cc1-c1nccc2cc(S(=O)(=O)Nc3ccncn3)ccc12` [Example 164, 1-(2-cyano-3′-fluoro-5-methoxy-5′-methyl-4-biphenylyl)-N-4-pyrimidinyl-6-isoquinolinesulfonamide], the IC50 was over 30000 nM. Consider `COc1cc(-c2cc(C)c(C)cc2C)c(C#N)cc1-c1nccc2cc(S(=O)(=O)Nc3ccncn3)ccc12` [Example 165, 1-(2-cyano-5-methoxy-2′,4′,5′-trimethyl-4-biphenylyl)-N-4-pyrimidinyl-6-isoquinolinesulfonamide], for which the half-inhibitory concentration (IC50) is over 30000 nM.

Still in this series, the particulars now being: read-out: Nav 1.5 PX IC50; in-vitro PX.
Consider `COc1cc(-c2ccc(F)c(Cl)c2)c(C#N)cc1-c1nccc2cc(S(=O)(=O)Nc3nncs3)ccc12` [Example 221, 1-(3′-chloro-2-cyano-4′-fluoro-5-methoxy-4-biphenylyl)-N-1,3,4-thiadiazol-2-yl-6-isoquinolinesulfonamide], for which the 50% inhibitory concentration (IC50) was over 10000 nM.

Turning to `COc1cc(-c2ccc(Cl)c(F)c2)c(C#N)cc1-c1nccc2cc(S(=O)(=O)Nc3nncs3)ccc12` [Example 224, 1-(4′-chloro-2-cyano-3′-fluoro-5-methoxy-4-biphenylyl)-N-1,3,4-thiadiazol-2-yl-6-isoquinolinesulfonamide], the IC50 was over 10000 nM. Same read-out and setting: next, `COc1cc(-c2cccc(F)c2)c(Cl)cc1-c1ncnc2cc(S(=O)(=O)Nc3ccon3)ccc12` [Example 227, 4-(2-chloro-3′-fluoro-5-methoxy-4-biphenylyl)-N-3-isoxazolyl-7-quinazolinesulfonamide]: over 10000 nM.

`COc1cc(-c2ccc(Cl)c(C)c2)c(C#N)cc1-c1nccc2cc(S(=O)(=O)Nc3nncs3)ccc12` [Example 228, 1-(4′-chloro-2-cyano-5-methoxy-3′-methyl-4-biphenylyl)-N-1,3,4-thiadiazol-2-yl-6-isoquinolinesulfonamide]: the half-maximal inhibitory concentration (IC50) was over 10000 nM. Take `COc1cc(-c2cccc(C(F)(F)F)c2)c(F)cc1-c1nn(C)c(=O)c2cc(S(=O)(=O)Nc3nncs3)ccc12` [Example 234, 1-(2-fluoro-5-methoxy-3′-(trifluoromethyl)-4-biphenylyl)-3-methyl-4-oxo-N-1,3,4-thiadiazol-2-yl-3,4-dihydro-6-phthalazinesulfonamide]: the half-maximal inhibitory concentration (IC50) is over 10000 nM.

Still in this series, the particulars now being: read-out: Nav 1.5 PX IC50; in-vitro PX (PatchXpress) data.
As for `COc1cc(-c2ccc(F)c(C)n2)c(C)cc1-c1ncnc2cc(S(=O)(=O)Nc3ccon3)ccc12` [Example 33], the IC50 is over 10000 nM.

Consider `COc1ccc(F)cc1-c1cc(OC)c(-c2ncnc3cc(S(=O)(=O)Nc4ccon4)ccc23)cc1C` [Example 191, 4-(5′-fluoro-2′,5-dimethoxy-2-methyl-4-biphenylyl)-N-3-isoxazolyl-7-quinazolinesulfonamide], for which the 50% inhibitory concentration (IC50) is over 10000 nM.

Still in this series, the particulars now being: read-out: Nav 1.5 PX IC50; in-vitro PX data.
`COc1cc(-c2cccc(Cl)c2)c(F)cc1-c1nccc2cc(S(=O)(=O)Nc3ccon3)ccc12` [Example 116, 1-(3′-chloro-2-fluoro-5-methoxy-4-biphenylyl)-N-3-isoxazolyl-6-isoquinolinesulfonamide]: the IC50 is over 10000 nM.

The target in another series is Nav 1.7 (Homo sapiens (Human), UniProt Q15858). The series is described as follows: Nav 1.7 in vitro PX assay (PatchXpress whole cell voltage clamp).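 Note: holding potential set for 20 to 50% inactivation, sodium current evoked by a 20 ms step to −10 mV, peak current inhibition read after compound exposure, 3–5 cells per concentration.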 The class given is cell-based. The settings on record: HEK 293 cells stably transfected with human Nav1.7; PatchXpress; partially inactivated state.
Sequence of Nav 1.7 (Q15858 whole entry): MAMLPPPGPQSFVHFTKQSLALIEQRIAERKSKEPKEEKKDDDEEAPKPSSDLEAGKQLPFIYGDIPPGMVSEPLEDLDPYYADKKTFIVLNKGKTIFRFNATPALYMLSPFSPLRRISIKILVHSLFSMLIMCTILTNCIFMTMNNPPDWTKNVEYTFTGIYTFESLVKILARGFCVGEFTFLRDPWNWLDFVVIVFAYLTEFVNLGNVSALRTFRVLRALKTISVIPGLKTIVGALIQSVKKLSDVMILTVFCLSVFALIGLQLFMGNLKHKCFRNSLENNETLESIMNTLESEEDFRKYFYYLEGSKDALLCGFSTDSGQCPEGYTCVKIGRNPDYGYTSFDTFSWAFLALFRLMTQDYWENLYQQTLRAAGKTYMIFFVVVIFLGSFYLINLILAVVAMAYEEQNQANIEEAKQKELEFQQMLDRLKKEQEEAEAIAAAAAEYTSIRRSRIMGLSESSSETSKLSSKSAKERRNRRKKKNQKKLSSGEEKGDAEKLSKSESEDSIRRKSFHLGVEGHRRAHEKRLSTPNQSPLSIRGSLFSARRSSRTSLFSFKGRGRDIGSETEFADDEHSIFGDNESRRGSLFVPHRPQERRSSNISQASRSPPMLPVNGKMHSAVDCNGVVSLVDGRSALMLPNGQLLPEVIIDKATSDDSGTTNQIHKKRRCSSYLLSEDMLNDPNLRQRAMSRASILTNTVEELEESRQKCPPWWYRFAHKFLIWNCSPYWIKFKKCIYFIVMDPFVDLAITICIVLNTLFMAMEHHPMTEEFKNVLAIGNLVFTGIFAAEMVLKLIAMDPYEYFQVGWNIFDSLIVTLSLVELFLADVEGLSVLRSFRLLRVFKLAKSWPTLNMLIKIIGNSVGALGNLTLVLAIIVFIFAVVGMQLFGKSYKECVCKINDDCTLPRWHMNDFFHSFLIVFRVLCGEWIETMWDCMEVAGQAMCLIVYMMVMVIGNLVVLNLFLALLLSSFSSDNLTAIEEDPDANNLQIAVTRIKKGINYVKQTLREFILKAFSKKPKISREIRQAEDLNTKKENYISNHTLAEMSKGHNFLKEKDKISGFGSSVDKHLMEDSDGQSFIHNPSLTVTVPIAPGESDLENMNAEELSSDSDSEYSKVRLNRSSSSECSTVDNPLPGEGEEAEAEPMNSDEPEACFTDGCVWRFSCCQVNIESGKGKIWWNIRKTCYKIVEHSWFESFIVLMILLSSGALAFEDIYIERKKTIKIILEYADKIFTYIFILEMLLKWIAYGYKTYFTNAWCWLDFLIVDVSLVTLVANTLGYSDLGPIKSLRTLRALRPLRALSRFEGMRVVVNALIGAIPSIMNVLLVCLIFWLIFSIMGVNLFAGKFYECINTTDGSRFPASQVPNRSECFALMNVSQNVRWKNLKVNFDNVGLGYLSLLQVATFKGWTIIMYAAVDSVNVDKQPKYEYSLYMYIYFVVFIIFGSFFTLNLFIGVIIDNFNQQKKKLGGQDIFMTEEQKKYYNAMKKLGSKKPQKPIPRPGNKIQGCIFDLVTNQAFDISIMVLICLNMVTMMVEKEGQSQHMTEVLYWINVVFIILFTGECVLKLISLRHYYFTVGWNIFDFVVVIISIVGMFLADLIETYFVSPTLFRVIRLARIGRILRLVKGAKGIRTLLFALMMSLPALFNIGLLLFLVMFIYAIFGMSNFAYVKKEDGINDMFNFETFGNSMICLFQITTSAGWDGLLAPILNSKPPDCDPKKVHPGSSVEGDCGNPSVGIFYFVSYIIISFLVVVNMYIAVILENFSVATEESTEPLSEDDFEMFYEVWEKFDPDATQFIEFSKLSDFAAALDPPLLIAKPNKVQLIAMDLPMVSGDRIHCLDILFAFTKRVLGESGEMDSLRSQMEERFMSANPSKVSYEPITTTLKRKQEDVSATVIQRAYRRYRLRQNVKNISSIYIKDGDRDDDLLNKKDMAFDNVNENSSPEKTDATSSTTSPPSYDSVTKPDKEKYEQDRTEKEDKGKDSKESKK
As to `COc1cc(-c2cccc(C(F)(F)F)c2)c(F)cc1-c1c2ccc(S(=O)(=O)Nc3ccon3)cc2cc(=O)n1C` [Example 546, 1-(2-fluoro-5-methoxy-3′-(trifluoromethyl)-4-biphenylyl)-N-3-isoxazolyl-2-methyl-3-oxo-2,3-dihydro-6-isoquinolinesulfonamide], the IC50 came to 29 nM. Still for that read-out and setting: with `COc1cc(-c2cc(F)cc(Cl)c2)c(F)cc1-c1[nH]c(=O)cc2cc(S(=O)(=O)Nc3ccon3)ccc12` [Example 547, 1-(3′-chloro-2,5′-difluoro-5-methoxy-4-biphenylyl)-N-3-isoxazolyl-3-oxo-2,3-dihydro-6-isoquinolinesulfonamide] the figure was 20 nM; with `COc1cc(-c2ccc(Cl)c(C)c2)c(F)cc1-c1[nH]c(=O)cc2cc(S(=O)(=O)Nc3ccon3)ccc12` [Example 548, 1-(4′-chloro-2-fluoro-5-methoxy-3′-methyl-4-biphenylyl)-N-3-isoxazolyl-3-oxo-2,3-dihydro-6-isoquinolinesulfonamide], 16 nM. `COc1cc(-c2ccc(Cl)c(C)c2)c(F)cc1-c1c(=O)[nH]cc2cc(S(=O)(=O)Nc3ccon3)ccc12` [Example 549, 4-(4′-chloro-2-fluoro-5-methoxy-3′-methyl-4-biphenylyl)-N-3-isoxazolyl-3-oxo-2,3-dihydro-7-isoquinolinesulfonamide] displayed a half-maximal inhibitory concentration (IC50) of 8 nM. Compound `COc1cc(-c2cc(F)cc(Cl)c2)c(F)cc1-c1c(=O)[nH]cc2cc(S(=O)(=O)Nc3ccon3)ccc12` [Example 550, 4-(3′-chloro-2,5′-difluoro-5-methoxy-4-biphenylyl)-N-3-isoxazolyl-3-oxo-2,3-dihydro-7-isoquinolinesulfonamide] returned an IC50 of 6 nM. The same measure, in the same setting: with `COc1cc(-c2cccc(F)c2)c(Cl)cc1-c1[nH]c(=O)cc2cc(S(=O)(=O)Nc3ncccn3)ccc12` [Example 553, 1-(2-chloro-3′-fluoro-5-methoxy-4-biphenylyl)-3-oxo-N-2-pyrimidinyl-2,3-dihydro-6-isoquinolinesulfonamide] the figure was 45 nM; with `COc1cc(-c2ccc(F)c(C3CC3)c2)c(C)cc1-c1ncnc2cc(S(=O)(=O)Nc3ccon3)ccc12` [Example 554, 4-(3′-cyclopropyl-4′-fluoro-5-methoxy-2-methyl-4-biphenylyl)-N-3-isoxazolyl-7-quinazolinesulfonamide], 34 nM; with `COc1cc(-c2cc(F)cc(C3CC3)c2)c(C)cc1-c1ncnc2cc(S(=O)(=O)Nc3ccon3)ccc12` [Example 555, 4-(3′-cyclopropyl-5′-fluoro-5-methoxy-2-methyl-4-biphenylyl)-N-3-isoxazolyl-7-quinazolinesulfonamide], 61 nM. `COc1cc(-c2cc(C)ccc2F)c(C)cc1-c1ncnc2cc(S(=O)(=O)Nc3ccon3)ccc12` [Example 556, 4-(2′-fluoro-5-methoxy-2,5′-dimethyl-4-biphenylyl)-N-3-isoxazolyl-7-quinazolinesulfonamide] yielded a concentration for half-maximal inhibition (IC50) of 113 nM. The same measure, in the same setting: with `COc1cc(-c2cc(Cl)ccc2F)c(C)cc1-c1ncnc2cc(S(=O)(=O)Nc3ccon3)ccc12` [Example 557, 4-(5′-chloro-2′-fluoro-5-methoxy-2-methyl-4-biphenylyl)-N-3-isoxazolyl-7-quinazolinesulfonamide] the figure was 56 nM. Still for that read-out and setting: with `COc1cc(-c2cc(Cl)ccc2C)c(C)cc1-c1ncnc2cc(S(=O)(=O)Nc3ccon3)ccc12` [Example 558, 4-(5′-chloro-5-methoxy-2,2′-dimethyl-4-biphenylyl)-N-3-isoxazolyl-7-quinazolinesulfonamide] the figure was 41 nM. Compound `COc1cc(-c2cc(OC)c(-c3ncnc4cc(S(=O)(=O)Nc5ccon5)ccc34)cc2C)ccc1F` [Example 559, 4-(4′-fluoro-3′,5-dimethoxy-2-methyl-4-biphenylyl)-N-3-isoxazolyl-7-quinazolinesulfonamide] registered an IC50 of 57 nM. The same measure, in the same setting: next, `COc1cc(F)cc(-c2cc(OC)c(-c3ncnc4cc(S(=O)(=O)Nc5ccon5)ccc34)cc2C)c1` [Example 560, 4-(3′-fluoro-5,5′-dimethoxy-2-methyl-4-biphenylyl)-N-3-isoxazolyl-7-quinazolinesulfonamide]: 35 nM; `COc1ccc(F)c(-c2cc(OC)c(-c3ncnc4cc(S(=O)(=O)Nc5ccon5)ccc34)cc2C)c1` [Example 561, 4-(2′-fluoro-5,5′-dimethoxy-2-methyl-4-biphenylyl)-N-3-isoxazolyl-7-quinazolinesulfonamide]: 89 nM; `COc1cc(-c2cccc(F)c2F)c(C)cc1-c1ncnc2cc(S(=O)(=O)Nc3ccon3)ccc12` [Example 562, 4-(2′,3′-difluoro-5-methoxy-2-methyl-4-biphenylyl)-N-3-isoxazolyl-7-quinazolinesulfonamide]: 90 nM. For the compound `COc1cc(-c2ccc(F)cc2F)c(C)cc1-c1ncnc2cc(S(=O)(=O)Nc3ccon3)ccc12` [Example 563, 4-(2′,4′-difluoro-5-methoxy-2-methyl-4-biphenylyl)-N-3-isoxazolyl-7-quinazolinesulfonamide], half-maximal inhibition (IC50) was put at 105 nM. Turning to `COc1cc(-c2cc(F)ccc2F)c(C)cc1-c1ncnc2cc(S(=O)(=O)Nc3ccon3)ccc12` [Example 564, 4-(2′,5′-difluoro-5-methoxy-2-methyl-4-biphenylyl)-N-3-isoxazolyl-7-quinazolinesulfonamide], the half-maximal inhibitory concentration (IC50) came to 94 nM. With `COc1cc(-c2c(F)cccc2F)c(C)cc1-c1ncnc2cc(S(=O)(=O)Nc3ccon3)ccc12` [Example 565, 4-(2′,6′-difluoro-5-methoxy-2-methyl-4-biphenylyl)-N-3-isoxazolyl-7-quinazolinesulfonamide], 199 nM corresponded to half-maximal inhibition (IC50).

With `COc1cc(-c2ccc3c(c2)CCC3)c(C)cc1-c1ncnc2cc(S(=O)(=O)Nc3ccon3)ccc12` [Example 566, 4-(4-(2,3-dihydro-1H-inden-5-yl)-2-methoxy-5-methylphenyl)-N-3-isoxazolyl-7-quinazolinesulfonamide], the 50% inhibitory concentration (IC50) amounted to 169 nM. `COc1cc(-c2cccc(F)c2)ccc1-c1c(=O)n(C)cc2cc(S(=O)(=O)Nc3ccon3)ccc12` [Example 589, 4-(3′-fluoro-3-methoxy-4-biphenylyl)-N-3-isoxazolyl-2-methyl-3-oxo-2,3-dihydro-7-isoquinolinesulfonamide]: the IC50 came out at 533 nM.
